SMILES strings stand for the structures.

In general, IC50 refers to the point on the concentration scale where inhibition reaches its midpoint. Usually EC50 stands for the concentration giving half of the maximal effect.

For one experiment, the target named is T1, human CB1 receptors (Homo sapiens, UniProt P21554).
T1 construct: (cDNA clone) CNR01L000
Put plainly: cAMP assay in HEK-293 cells, hCB1 agonist. The class given is cell-based. The note with it: inhibition of forskolin-stimulated cAMP, HEK-293 cells; for EC50: read-out: hCB1 EC50 (cAMP ag). The gist of the method:
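Agonist EC50 taken as concentration giving half inhibition of forskolin-driven cAMP, normalized to forskolin maximum, from sigmoidal curves. Whole HEK-293 cells stably expressing hCB1, in HEPES/BSA-containing HBSS, exposed 30 min at 37° C. to compound with forskolin (90 uM in 3× dilution); cAMP read after lysis.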
For orientation: Cyclic AMP is a second messenger, typically raised through Gs and lowered through Gi signalling.

Experiment [1] deals with T2, recombinant human cannabinoid receptor CB1 (Homo sapiens, UniProt P21554).
T2 construct: (cDNA clone) CNR01L000
Put plainly: Cannabinoid receptor radioligand binding assay, [3H]-CP 55,940 displacement, hCB1. The gist of the method:
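Displacement of 0.5 nM [3H]-CP 55,940 (1 μM unlabeled CP 55,940 for nonspecific) measured by filtration and scintillation counting. Binding ran 90 min at room temperature in pH 7.5 Tris buffer with 0.1% fatty-acid-free BSA, using recombinant hCB1 HEK-293 membranes at 2-10 μg protein.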

The next experiment has as its target T3, human CB1 (hCB1) (Homo sapiens, UniProt P21554).
T3 construct: (cDNA clone) CNR01L000
Put plainly: 35S GTPγS binding assay, hCB1 agonist. The class given is biochemical. The following applies: GTPγS agonist, HEK-293 membranes; read-out: hCB1 EC50 (GTPyS ag).

T1 sequence (P21554 whole entry): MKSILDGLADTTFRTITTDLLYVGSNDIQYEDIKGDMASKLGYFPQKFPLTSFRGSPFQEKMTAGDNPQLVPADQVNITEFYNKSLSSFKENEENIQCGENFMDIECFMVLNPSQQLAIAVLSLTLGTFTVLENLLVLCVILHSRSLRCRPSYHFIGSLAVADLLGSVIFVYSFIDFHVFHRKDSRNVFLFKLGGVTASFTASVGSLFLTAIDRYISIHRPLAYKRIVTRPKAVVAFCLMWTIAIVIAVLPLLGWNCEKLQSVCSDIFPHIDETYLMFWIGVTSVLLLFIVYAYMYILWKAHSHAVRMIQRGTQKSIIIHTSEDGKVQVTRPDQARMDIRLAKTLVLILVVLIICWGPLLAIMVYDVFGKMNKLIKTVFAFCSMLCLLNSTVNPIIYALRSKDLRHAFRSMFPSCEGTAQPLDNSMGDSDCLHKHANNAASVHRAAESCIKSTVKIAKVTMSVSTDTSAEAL
T3 sequence (P21554 whole entry): as above
T2 sequence (P21554 whole entry): as above

Consider `Cc1cc2cc(C(=O)c3cccc(Cl)c3Cl)sc2n1CCc1ccccc1` [Compound 30, (2,3-Dichlorophenyl)(5-methyl-6-phenethyl-6H-thieno[2,3-b]pyrrol-2-yl)methanone], for which the “hCB1 EC50 (cAMP ag, nM)” value at human CB1 receptors is “NS (NS means “Not Significant,” which means less than 30% agonist activity when compared to the positive control.)”. The IC50 in experiment [1] is 100 to 1000 nM. The EC50 at human CB1 (hCB1) was in the range of 100 to 1000 nM.
For `Cc1cc2cc(C(=O)c3cccc(Cl)c3Cl)sc2n1CCN1CCN(C)CC1` [Compound 33, (2,3-Dichlorophenyl)(5-methyl-6-(2-(4-methylpiperazin-1-yl)ethyl)-6H-thieno[2,3-b]pyrrol-2-yl)methanone], the “hCB1 EC50 (cAMP ag, nM)” value on human CB1 receptors is “NS (NS means “Not Significant,” which means less than 30% agonist activity when compared to the positive control.)”. Also, in experiment [1], the IC50 is greater than 10000 nM. Moreover, at human CB1 (hCB1), the EC50 was less than 100 nM.
As for `Cc1cc2cc(C(=O)c3cccc(Cl)c3Cl)sc2n1S(=O)(=O)N1CCOCC1` [Compound 45, (2,3-Dichlorophenyl)(5-methyl-6-(morpholinosulfonyl)-6H-thieno[2,3-b]pyrrol-2-yl)methanone], the “hCB1 EC50 (cAMP ag, nM)” value on human CB1 receptors is given as “NS (NS means “Not Significant,” which means less than 30% agonist activity when compared to the positive control.)”. In experiment [1], the IC50 was less than 100 nM. At human CB1 (hCB1), the EC50 fell in the range of 100 to 1000 nM.
Consider `Cc1cc2cc(C(=O)c3cccc(Cl)c3Cl)sc2n1S(=O)(=O)CC1CCOCC1` [Compound 46, (2,3-Dichlorophenyl)(5-methyl-6-((tetrahydro-2H-pyran-4-yl)methylsulfonyl)-6H-thieno[2,3-b]pyrrol-2-yl)methanone], for which the EC50 on human CB1 receptors and on human CB1 (hCB1) was less than 100 nM in each case. In experiment [1], the IC50 is less than 100 nM.
For `COc1ccc(C(=O)c2cc3cc(C)n(S(=O)(=O)N4CCOCC4)c3s2)cc1` [Compound 53, (4-methoxyphenyl)(5-methyl-6-(morpholinosulfonyl)-6H-thieno[2,3-b]pyrrol-2-yl)methanone], the figures for the EC50 at human CB1 receptors and on human CB1 (hCB1) were less than 100 nM and 100 to 1000 nM, respectively. Besides, the IC50 in experiment [1] is less than 100 nM.
Take `COc1ccc(C(=O)c2cc3cc(C)n(S(=O)(=O)CC4CCOCC4)c3s2)cc1` [Compound 57, (4-Methoxyphenyl)(5-methyl-6-((tetrahydro-2H-pyran-4-yl)methylsulfonyl)-6H-thieno[2,3-b]pyrrol-2-yl)methanone]: the EC50 at human CB1 receptors and on human CB1 (hCB1) was less than 100 nM in each case. Also, the IC50 in experiment [1] was less than 100 nM.
Turning to `COc1ccc(C(=O)c2cc3cc(C)n(CC4CCOCC4)c3s2)cc1` [Compound 62, (4-Methoxyphenyl)(5-methyl-6-((tetrahydro-2H-pyran-4-yl)methyl)-6H-thieno[2,3-b]pyrrol-2-yl)methanone], the EC50 on human CB1 receptors and on human CB1 (hCB1) was 100 to 1000 nM each time. Also, the IC50 in experiment [1] lay within 1000 to 10000 nM.
Consider `COc1ccc(C(=O)c2cc3cc(C)n(CCN4CCOCC4)c3s2)c(Cl)c1` [Compound 70, (2-Chloro-4-methoxyphenyl)(5-methyl-6-(2-morpholinoethyl)-6H-thieno[2,3-b]pyrrol-2-yl)methanone], for which the EC50 at human CB1 receptors lay within 100 to 1000 nM. The IC50 in experiment [1] lay in the range of 100 to 1000 nM.
Take `COc1ccc(C(=O)c2cc3cc(C)n(CCN4CCCCC4)c3s2)cc1` [Compound 78, (4-Methoxyphenyl)(5-methyl-6-(2-(piperidin-1-yl)ethyl)-6H-thieno[2,3-b]pyrrol-2-yl)methanone]: the EC50 at human CB1 receptors is 1000 to 10000 nM; at human CB1 (hCB1), less than 100 nM. In experiment [1], the IC50 fell in the range of 1000 to 10000 nM.
Take `COc1ccc(C(=O)c2cc3cc(C)n(CCC4CCOCC4)c3s2)cc1` [Compound 82, (4-Methoxyphenyl)(5-methyl-6-(2-(tetrahydro-2H-pyran-4-yl)ethyl)-6H-thieno[2,3-b]pyrrol-2-yl)methanone]: the EC50 on human CB1 receptors and at human CB1 (hCB1) was 100 to 1000 nM each time. In experiment [1], the IC50 fell in the range of 100 to 1000 nM.
For the molecule `COc1ccc(C(=O)c2cc3cc(C)n(Cc4ccccc4)c3s2)cc1` [Compound 84, (6-Benzyl-5-methyl-6H-thieno[2,3-b]pyrrol-2-yl)(4-methoxyphenyl)methanone], the “hCB1 EC50 (cAMP ag, nM)” value at human CB1 receptors was “NS (NS means “Not Significant,” which means less than 30% agonist activity when compared to the positive control.)”. For the same molecule, the IC50 in experiment [1] lay within 1000 to 10000 nM.
Take `COc1ccc(C(=O)c2cc3cc(C)n(CCCCl)c3s2)c(Cl)c1` [Compound 85, (2-Chloro-4-methoxyphenyl)(6-(3-chloropropyl)-5-methyl-6H-thieno[2,3-b]pyrrol-2-yl)methanone]: the EC50 at human CB1 receptors lay within 1000 to 10000 nM. Also, the IC50 in experiment [1] is 1000 to 10000 nM.
With `COc1ccc(C(=O)c2cc3cc(C)n(CCCNS(C)(=O)=O)c3s2)c(F)c1` [Compound 87, N-(3-(2-(2-Fluoro-4-methoxybenzoyl)-5-methyl-6H-thieno[2,3-b]pyrrol-6-yl)propyl)methanesulfonamide], the “hCB1 EC50 (cAMP ag, nM)” value at human CB1 receptors was “NS (NS means “Not Significant,” which means less than 30% agonist activity when compared to the positive control.)”. Besides, in experiment [1], the IC50 is greater than 10000 nM.
As to `COc1ccc(C(=O)c2cc3cc(C)n(CCCNS(C)(=O)=O)c3s2)c(Cl)c1` [Compound 91, N-(3-(2-(2-Chloro-4-methoxybenzoyl)-5-methyl-6H-thieno[2,3-b]pyrrol-6-yl)propyl)methanesulfonamide], the “hCB1 EC50 (cAMP ag, nM)” value at human CB1 receptors is recorded as “NS (NS means “Not Significant,” which means less than 30% agonist activity when compared to the positive control.)”. In experiment [1], the IC50 was greater than 10000 nM.
On to `COc1ccc(C(=O)c2cc3cc(C)n(CCN4CCOCC4)c3s2)c(C(F)(F)F)c1` [Compound 119, (4-Methoxy-2-(trifluoromethyl)phenyl)(5-methyl-6-(2-morpholinoethyl)-6H-thieno[2,3-b]pyrrol-2-yl)methanone], for which the EC50 on human CB1 receptors and at human CB1 (hCB1) was 100 to 1000 nM in each case. Also, in experiment [1], the IC50 fell in the range of 1000 to 10000 nM.
As to `Cc1ccc(C(=N)c2cc3cc(C)n(CCN4CCOCC4)c3s2)cc1` [Compound 121, (5-methyl-6-(2-morpholinoethyl)-6H-thieno[2,3-b]pyrrol-2-yl)(p-tolyl)methanimine], the “hCB1 EC50 (cAMP ag, nM)” value on human CB1 receptors is given as “NS (NS means “Not Significant,” which means less than 30% agonist activity when compared to the positive control.)”. Moreover, the IC50 in experiment [1] was 1000 to 10000 nM.
As for `COc1ccc(C(=O)c2cc3cc(C)n(CCN4CCOCC4)c3s2)cc1F` [Compound 128, (3-fluoro-4-methoxyphenyl)(5-methyl-6-(2-morpholinoethyl)-6H-thieno[2,3-b]pyrrol-2-yl)methanone], at human CB1 receptors, the “hCB1 EC50 (cAMP ag, nM)” value is recorded as “NS (NS means “Not Significant,” which means less than 30% agonist activity when compared to the positive control.)”. Further, the IC50 in experiment [1] lay in the range of 1000 to 10000 nM.
In the same order, the values of `Cc1cc2cc(C(=O)c3ccc(C#N)cc3)sc2n1CCN1CCOCC1` [Compound 129, 4-(5-methyl-6-(2-morpholinoethyl)-6H-thieno[2,3-b]pyrrole-2-carbonyl)benzonitrile] are “NS (NS means “Not Significant,” which means less than 30% agonist activity when compared to the positive control.)” and 1000 to 10000 nM.
Regarding `COc1cc(F)ccc1C(=O)c1cc2cc(C)n(CCN3CCOCC3)c2s1` [Compound 133, (4-fluoro-2-methoxyphenyl)(5-methyl-6-(2-morpholinoethyl)-6H-thieno[2,3-b]pyrrol-2-yl)methanone], the EC50 at human CB1 receptors was 100 to 1000 nM. Further, in experiment [1], the IC50 is 100 to 1000 nM.
Regarding `Cc1cc2cc(C(=O)c3ccc(F)cc3F)sc2n1CCN1CCOCC1` [Compound 135, (2,4-difluorophenyl)(5-methyl-6-(2-morpholinoethyl)-6H-thieno[2,3-b]pyrrol-2-yl)methanone], at human CB1 receptors, the “hCB1 EC50 (cAMP ag, nM)” value is listed as “NS (NS means “Not Significant,” which means less than 30% agonist activity when compared to the positive control.)”. Also, the IC50 in experiment [1] was in the range of 1000 to 10000 nM.
As to `COc1ccc(C(=O)c2cc3cc(C)n(CCN4CCOCC4)c3s2)c(C)n1` [Compound 136, (6-methoxy-2-methylpyridin-3-yl)(5-methyl-6-(2-morpholinoethyl)-6H-thieno[2,3-b]pyrrol-2-yl)methanone], the “hCB1 EC50 (cAMP ag, nM)” value at human CB1 receptors was “NS (NS means “Not Significant,” which means less than 30% agonist activity when compared to the positive control.)”. In addition, the IC50 in experiment [1] was 1000 to 10000 nM.
`COc1ccc(C(O)(c2cc3cc(C)n(CCN4CCOCC4)c3s2)C(F)(F)F)cc1` (stereo not shown) [Compound 138, 2,2,2-trifluoro-1-(4-methoxyphenyl)-1-(5-methyl-6-(2-morpholinoethyl)-6H-thieno[2,3-b]pyrrol-2-yl)ethanol]: at human CB1 receptors, the “hCB1 EC50 (cAMP ag, nM)” value is “NS (NS means “Not Significant,” which means less than 30% agonist activity when compared to the positive control.)”. The IC50 in experiment [1] lay in the range of 1000 to 10000 nM.
With `COc1ccc(C(c2cc3cc(C)n(CCN4CCOCC4)c3s2)C(F)(F)F)cc1` (stereo not shown) [Compound 141, 4-(2-(5-methyl-2-(2,2,2-trifluoro-1-(4-methoxyphenyl)ethyl)-6H-thieno[2,3-b]pyrrol-6-yl)ethyl)morpholine], at human CB1 receptors, the “hCB1 EC50 (cAMP ag, nM)” value is reported as “NS (NS means “Not Significant,” which means less than 30% agonist activity when compared to the positive control.)”. Also, in experiment [1], the IC50 was 1000 to 10000 nM.
With `COc1ccc(C(=O)c2cc3cc(C)n(CCN4CCC(OC)C4)c3s2)cn1` (stereo not shown) [Compound 147, (6-methoxypyridin-3-yl)(6-(2-(3-methoxypyrrolidin-1-yl)ethyl)-5-methyl-6H-thieno[2,3-b]pyrrol-2-yl)methanone], on human CB1 receptors, the “hCB1 EC50 (cAMP ag, nM)” value was “NS (NS means “Not Significant,” which means less than 30% agonist activity when compared to the positive control.)”. Moreover, the IC50 in experiment [1] was greater than 10000 nM.

Values taken from patent US20130029970A1 (priority 2009, published 2013).
